From US7365082B2, “N-(substituted arylmethyl)-4-(disubstituted methyl)piperidines and piperazines” (Bayer CropScience AG, priority 2002, dated 2008)

System: tobacco budworm (Heliothis virescens [Fabricius])
Assay: surface-treated diet test against tobacco budworm
Assay type: in vivo
Settings: 0.25 millimoles of candidate insecticide on the surface of the diet, second instar larvae, five-day exposure; for Percent Mortality: compared to the total number of insects infested; for Percent Growth Inhibition: inhibition of insect weight relative to untreated controls
Experimental: Candidate insecticides were evaluated for activity against the tobacco budworm (Heliothis virescens [Fabricius]) in a surface-treated diet test.
In this test one mL of molten (65-70° C.) wheat germ-based artificial diet was pipetted into each well of a four by six (24 well) multi-well plate (ID# 430345-15.5 mm dia.×17.6 mm deep; Corning Costar Corp., One Alewife Center, Cambridge, Mass. 02140). The diet was allowed to cool to ambient temperature before treatment with candidate insecticide.
For a determination of insecticidal activity, solutions of the candidate insecticides were prepared for testing using a Packard 204DT Multiprobe® Robotic System (Packard Instrument Company, 800 Research Parkway, Meriden, Conn. 06450), in which the robot first diluted a standard 50 millimolar DMSO solution of candidate insecticide with a 1:1 water/acetone solution (V/V) in a ratio of 1:7 stock solution to water/acetone. The robot subsequently pipetted 40 microliters of the so-prepared solution onto the surface of the diet in each of three wells in the 24 multi-well plate. The process was repeated with solutions of seven other candidate insecticides. Once treated, the contents of the multi-well plate were allowed to dry, leaving 0.25 millimoles of candidate insecticide on the surface of the diet, or a concentration of 0.25 millimolar. Appropriate untreated controls containing only DMSO on the diet surface were also included in this test.
For evaluations of the insecticidal activity of a candidate insecticide at varying rates of application, the test was established as described above using sub-multiples of the standard 50 millimolar DMSO solution of candidate insecticide. For example, the standard 50 millimolar solution was diluted by the robot with DMSO to give 5, 0.5, 0.05, 0.005, 0.0005 millimolar, or more dilute solutions of the candidate insecticide. In these evaluations there were six replicates of each rate of application placed on the surface of the diet in the 24 multi-well plate, for a total of four rates of application of candidate insecticide in each plate.
In each well of the test plate was placed one second instar tobacco budworm larvea, each weighing approximately five milligrams. After the larvae were placed in each well, the plate was sealed with clear polyfilm adhesive tape. The tape over each well was perforated to ensure an adequate air supply. The plates were then held in a growth chamber at 25° C. and 60% relative humidity for five days (light 14 hours/day).
After the five-day exposure period insecticidal activity for each rate of application of candidate insecticide was assessed as percent inhibition of insect weight relative to the weight of insects from untreated controls, and percent mortality when compared to the total number of insects infested.
The test compounds of formula I are identified by numbers that correspond to those in Table 1.

| SMILES | Percent Mortality | Percent Growth Inhibition |
| --- | --- | --- |
| Cn1nnc(-c2ccc(CN3CCC(C(=NNC(=O)c4ccc(I)cc4)c4ccc(OC(F)(F)F)cc4)CC3)cc2)n1 [Compound 144] | 100% | 100% |
| Cc1ccc(C(=O)NN=C(c2ccc(OC(F)(F)F)cc2)C2CCN(Cc3ccc(-c4nnn(C)n4)cc3)CC2)cc1 [Compound 145] | 100% | 100% |
| COc1ccc(C(=O)NN=C(c2ccc(OC(F)(F)F)cc2)C2CCN(Cc3ccc(-c4nnn(C)n4)cc3)CC2)cc1 [Compound 146] | 100% | 100% |
| CCn1nnc(-c2ccc(CN3CCC(C(=NNC(=O)c4ccc(C(F)(F)F)cc4)c4ccc(OC(F)(F)F)cc4)CC3)cc2)n1 [Compound 147] | 100% | 92% |
| Cn1nnc(-c2ccc(CN3CCC(C(=NNC(=O)c4ccc(OC(F)(F)F)cc4)c4ccc(OC(F)(F)F)cc4)CC3)cc2)n1 [Compound 148] | 100% | 100% |
| CCn1nnc(-c2ccc(CN3CCC(/C(=N\NC(=O)c4ccc(OC(F)(F)F)cc4)c4ccc(OC(F)(F)F)cc4)CC3)cc2)n1 [Compound 149, N-[1-aza-2-(1-{[4-(2-ethyl(1,2,3,4-tetraazol-5-yl))phenyl]methyl}(4-piperidyl))-2-[4-(trifluoromethoxy)phenyl]vinyl][4-(trifluoromethoxy)phenyl]carboxamide] | 100% | 96% |
| Clc1ccc(C(c2ccc(Cl)cc2)N2CCN(Cc3ccc(Oc4ncccn4)cc3)CC2)cc1 [Compound 167] | 100% | 100% |
| FC(F)(F)c1ccc(C(c2ccc(Cl)cc2)N2CCN(Cc3ccc(Oc4ncccn4)cc3)CC2)cc1 (stereo not drawn) [Compound 168] | 100% | 100% |
| FC(F)(F)c1ccc(C(c2ccc(C(F)(F)F)cc2)N2CCN(Cc3ccc(Oc4ncccn4)cc3)CC2)cc1 [Compound 169, 2-{4-[(4-{bis[4-(trifluoromethyl)phenyl]methyl}piperazinyl)methyl]phenoxy}pyrimidine] |  | 100% |
| [O-][N+]1(Cc2ccc(Oc3ccccc3F)cc2)CCN(C(c2ccc(OC(F)(F)F)cc2)c2ccc(OC(F)(F)F)cc2)CC1 [Compound 172] | 100% | 100% |
| CC(C)OC(=O)Nc1ccc(C[N+]2([O-])CCN(C(c3ccc(C(F)(F)F)cc3)c3ccc(C(F)(F)F)cc3)CC2)cc1 [Compound 174] | 100% | 100% |
| CCn1nnc(-c2ccc(C[N+]3([O-])CCN(C(c4ccc(C(F)(F)F)cc4)c4ccc(C(F)(F)F)cc4)CC3)cc2)n1 [Compound 175] | 100% | 100% |
| [O-][N+]1(Cc2ccc(Oc3ccccn3)cc2)CCN(C(c2ccc(Cl)cc2)c2ccc(C(F)(F)F)cc2)CC1 (stereo not drawn) [Compound 176] | 100% | 100% |
| [O-][N+]1(Cc2ccc(Oc3ccccn3)cc2)CCN(C(c2ccc(C(F)(F)F)cc2)c2ccc(C(F)(F)F)cc2)CC1 [Compound 177] | 100% | 100% |
| [O-][N+]1(Cc2ccc(Oc3ncccn3)cc2)CCN(C(c2ccc(Cl)cc2)c2ccc(Cl)cc2)CC1 [Compound 178] | 0% | 100% |
| [O-][N+]1(Cc2ccc(Oc3ncccn3)cc2)CCN(C(c2ccc(Cl)cc2)c2ccc(C(F)(F)F)cc2)CC1 (stereo not drawn) [Compound 179] | 100% | 100% |
| [O-][N+]1(Cc2ccc(Oc3ncccn3)cc2)CCN(C(c2ccc(C(F)(F)F)cc2)c2ccc(C(F)(F)F)cc2)CC1 [Compound 180, 2-{4-[(4-{bis[4-(trifluoromethyl)phenyl]methyl}1-oxypiperazinyl)methyl]phenoxy}pyrimidine] | 100% | 100% |
